The subject of one test is CD4+ T-cells. In words: Taqman real time PCR of Shh, Ihh, HIP and Ptc expression in CD4+ T-cells (FIGS. 14, 15, 17). Format: cell-based. Conditions: for Hip expression / Shh expression: activated T-cells, IFNγ; for Shh expression / production by activated T-cells: cytokine added. The protocol:
Expression in medium, in the presence of 50 ng/ml IL-10 and in the presence of 50 ng/ml IFN-γ was compared to expression in resting CD4+ T-cells;
Similar experiments were used to study the expression of Shh (FIG. 4) and Ptc (FIG. 5) in T-cells and the expression of components of the Hh signalling pathway in lymphoid tissues (FIG. 6). FIG. 14 illustrates the results of an RT-PCR analysis of Shh, Ihh, Hip and Ptc expression. Activation of T-cells induced a sustained and marked (approximately 80-fold) increase in Shh mRNA, peaking at 44 and 72 hours. It lead to a downregulation of Ptc.
On the technique in general: Real-time PCR tracks product formation cycle by cycle.

In test [1] the target is endogenous Shh produced by activated mouse CD4+ T-cells (mouse) (UniProt Q62226). Put plainly: cell-based or functional assay.
endogenous Shh produced by activated mouse CD4+ T-cells (mouse), sequence (Q62226 25-198 limits assumed): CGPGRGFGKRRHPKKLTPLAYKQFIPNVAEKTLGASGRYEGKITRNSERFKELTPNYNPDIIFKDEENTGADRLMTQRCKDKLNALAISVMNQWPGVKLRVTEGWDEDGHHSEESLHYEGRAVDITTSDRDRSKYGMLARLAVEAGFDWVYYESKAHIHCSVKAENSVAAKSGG

For IFNγ: cytokine interferon gamma, the Hip expression entry in the test on CD4+ T-cells (24 and 48 hours) is “upreguated”; in the test on CD4+ T-cells (72 hours) it was “downregulted”. In addition, the Shh expression entry was “downregulation” in the test on CD4+ T-cells (24 hours) and “upregulation” in the test with CD4+ T-cells (48 hours). The “Shh expression / production by activated T-cells” value (from here on “Shh expression / production”) in the test on CD4+ T-cells was “downregulation”.

TGF-β: the “Shh expression / production” value with CD4+ T-cells is recorded as “down-regulate”.

In test [1], neutralising anti-Shh antibody 5E1 gave a % decrease in the proportion of CD4+ T-cells in S/G2 with anti-Shh antibody (50 µg/ml), cell cycle analysis of 66.2 to 81.6%; a % decrease in the proportion of CD4+ T-cells in S/G2 with anti-Shh antibody (50 µg/ml), cell cycle analysis, mean of 73.4%; a decrease in proliferation of sub-optimally activated CD4+ T-cells with 50 µg/ml anti-Shh antibody (3H-TdR incorporation) of 71.3 to 85.1%.

B1: IL-10: immunosuppressive cytokine, interleukin (protein, UniProt P22301 19-178, looked up)
Interleukin-10: SPGQGTQSENSCTHFPGNLPNMLRDLRDAFSRVKTFFQMKDQLDNLLLKESLLEDFKGYLGCQALSEMIQFYLEEVMPQAENQDPDIKAHVNSLGENLKTLRLRLRRCHRFLPCENKSKAVEQVKNAFNKLQEKGIYKAMSEFDIFINYIEAYMTMKIRN
For B1, in the test with CD4+ T-cells, the “Shh expression / production” value is listed as “down-regulate”.

For the origin of these results see US20040126359A1, “Hedgehog” (priority 2001, published 2004).
